The source of these data is publication PMC12254266, “Multicolored sequential resonance energy transfer for detection of simultaneous ligand binding at G protein-coupled receptors” (Nature Communications, 2025).

Several values for one entry are separate records, joined by “and”; a condition that tells them apart may be missing. Equal entries are not always repeated.

For assay [1], the target named is T1, Nluc-FFA1 (Homo sapiens, UniProt O14842).
T1 construct: expressed in transfected cells
Briefly: DISCo-BRET with TUG-2591 and TUG-2597 at N terminal Nluc tagged FFA1. The assay is classed as binding. Conditions: Figure 3F, 10 nM, technical duplicate. Here is the method:
Nluc-FFA1 or FFA1-Nluc Flp-In T-REx 293 cells were plated at 50,000 cells per well in poly-D-lysine coated white 96-well plates. Cells were cultured for 24 h in the plate before medium was replaced with medium containing 100 ng/mL of doxycycline to induce receptor expression. After culturing for a further 24 h, culture medium was removed, cells washed with HBSS and incubated in HBSS for 30 min. For all DISCo-BRET formats Nano-Glo substrate was then added at a 1:800 final dilution and cells incubated for 10 min. Following substrate addition experimental set up different among the three formats: endpoint, spectra scan, and kinetics.
For endpoint experiments all fluorescent and unlabelled ligands were added to the cells and incubated for 5 min at 37 °C. Luminescent emission was then measured using a CLARIOstar microplate reader with monochromator set at 450–60 nm (Nluc), 540−60 nm (NBD) and 690–100 nm (SulfoCy5). BRET ratios were then calculated as either SulfoCy5 emission divided by NBD emission, SulfoCy5 emission divided by Nluc emission, or NBD emission divided by Nluc emission.
For spectra scan experiments all indicated fluorescent and unlabelled ligands were added to the cells and cells incubated for 5 min at 37 °C. Luminescence emissions were then measured from each well of the plate from 440 nm – 740 nm with a 5 nm resolution using a CLARIOstar microplate. […]
(In BRET a luciferase serves as donor, and the signal depends on an acceptor being close.)

Assay [2] has as its target T1, Nluc-FFA1. Briefly: NanoBRET binding (saturation, competition, kinetics) at N terminal Nluc tagged FFA1. Particulars: Nluc-FFA1; for Kd: read-out: Kd, saturation BRET binding. Here is the method: (§1) Nluc-FFA1 or FFA1-Nluc Flp-In T-REx 293 cells were plated at 50,000 cells per well in poly-D-lysine coated white 96-well plates. Cells were cultured for 24 h in the plate before medium was replaced with medium containing 100 ng/mL of doxycycline to induce receptor expression. After culturing for a further 24 h, medium was removed, cells were washed with HBSS and incubated in HBSS for 30 min. To start the assay, NanoGlo substrate (Promega, N1110) was added to the cells at a 1:800 final dilution and incubated for 10 min at 37 °C. For endpoint assays, including both saturation and competition binding, test ligands were then added, including both fluorescent and unlabelled competing ligands as indicated, and plates incubated for a further 5 min at 37 °C. NanoBRET was then quantified in a CLARIOstar microplate reader (BMG Labtech) by measuring luminescent emission with the monochrometer set for the Nluc donor at 450–60 nm, and acceptor luminescent emission 540–60 nm (NBD), 600–80 nm (Cy3.5) or 690–100 nm (SulfoCy5), depending on which fluorophore was being tested. The acceptor/donor BRET ratio was then taken as a measure of fluorophore binding. For kinetic on then off NanoBRET experiments plates were washed the same way and substrate was added to the same concentration. However, 10 min after substrate was added plates were inserted into the CLARIOstar microplate reader set to 25 °C to take repeated measurements of luminescent emission for both the donor and the acceptor fluorophore being used. After 5 min of background measurements, the indicated concentration of fluorescent ligand was added using the plate reader injector and luminescent emission was monitored for ~10 min before the reader was paused to manually add a high concentration of appropriate competing ligand to initiate dissociation. The plate was returned to the reader and luminescence measurements were continued for a further 30 min to monitor dissociation of the fluorescent ligand. For kinetic experiments using multiple concentrations of fluorescent ligand, cells were placed in the plate reader immediately after the addition of Nano-Glo substrate and luminescent measurements were taken. After 5 min, the reader was paused to add the indicated concentrations of fluorescent ligand, before measurements were continued. To set non-specific binding for kinetic experiments, the indicated competing ligand was added 5 min before the addition of the fluorescent ligand.

For assay [3], the target named is FFA1 (Homo sapiens, UniProt O14842). As to the kind of experiment: Ca2+ mobilisation (Fura2) in Flp-In T-REx 293 cells expressing Nluc-FFA1, FFA1-Nluc or untagged FFA1. It counts as cell-based. Details: expressed in transfected cells. Here is the method:
Nluc-FFA1, FFA1-Nluc or untagged FFA1 Flp-In T-REx 293 cells were plated at 50,000 cells per well in poly-D-lysine coated black clear bottom 96-well plates. Cells were then cultured for 24 h until reaching confluency before culture medium was replaced with medium containing 100 ng/mL of doxycycline to induce receptor expression. Cells were cultured for a further 24 h before the assay. On the day of the assay culture medium was removed and replaced with medium containing 3 μM Fura2-AM Ca^2+ dye. […] Fura2 fluorescent emission at 520 nm following excitation with each of 340 and 380 nm was measured in regular intervals both before and after adding test compounds for a total of 90 s per well. Calcium responses were determined by taking the peak 340/380 ratio after first subtracting the ratios obtained prior to addition of test compound.
On the technique in general: Calcium assays in cells follow changes in intracellular calcium, usually with a dye or a luminescent sensor.

Assay [4] deals with FFA1-Nluc (Homo sapiens, UniProt O14842). Briefly: NanoBRET binding (saturation, kinetics) at C terminal Nluc tagged FFA1. Details: expressed in transfected cells. Particulars: FFA1-Nluc, 95% confidence interval in parentheses; for Kd: read-out: Kd, saturation BRET binding; for BMax, saturation BRET binding: specific BRET. On the procedure: as §1
Where [5] appears, read: 95% confidence interval in parentheses.
The mark [6] stands for this setting: log[Ligand] -5.5, single technical replicates.
The mark [7] stands for this setting: log[Ligand] -6, single technical replicates.
Setting [8] is: log[Ligand] -6.5, single technical replicates.
[9] abbreviates: log[Ligand] -7, single technical replicates.
The mark [10] stands for this setting: log[Ligand] -8, single technical replicates.

FFA1-Nluc, sequence (O14842 whole entry): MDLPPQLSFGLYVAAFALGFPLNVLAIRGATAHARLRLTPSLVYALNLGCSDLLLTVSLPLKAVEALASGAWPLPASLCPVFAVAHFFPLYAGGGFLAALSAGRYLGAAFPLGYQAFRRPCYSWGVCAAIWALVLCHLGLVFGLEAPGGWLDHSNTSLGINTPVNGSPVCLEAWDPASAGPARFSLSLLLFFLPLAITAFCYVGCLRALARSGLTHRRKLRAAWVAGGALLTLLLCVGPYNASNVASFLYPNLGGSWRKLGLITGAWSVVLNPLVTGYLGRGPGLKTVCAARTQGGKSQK
FFA1, sequence (O14842 whole entry): as above
T1 sequence (O14842 whole entry): as above

For the molecule `Cc1cc(OCCCNC(=O)CCCN2\C(=C/C=C/C=C/C3=[N+](C)c4ccc(S(=O)(=O)[O-])cc4C3(C)C)C(C)(C)c3ccccc32)ccc1-c1cccc(COc2ccc(CCC(=O)O)c(F)c2)c1` [TUG-TUG-2591], the “Area under the curve from luminecent emission, Total” value in assay [1] is 0.1968 and 0.1494 and 0.1776 and 0.1635 and 0.1742 and 0.2754.

Consider `Cc1cc(OCCOCCNC(=O)CCCCC[N+]2=C(/C=C/C=C3/N(C)c4ccc5ccccc5c4C3(C)C)C(C)(C)c3c2ccc2ccccc32)ccc1-c1cccc(COc2ccc(CCC(=O)O)c(F)c2)c1.O=C([O-])C(F)(F)F` [TUG-2287], for which the Kd in assay [2] (setting [5]) worked out at 200 nM; in assay [4], 25 nM. Moreover, the “activity in Ca2+ assays” value in assay [3] (in words) is reported as “no measurable activity”. The “Ca2+ Response as a % of T360 Response” value was 17.83% and 27.69% and 20.05% and -0.41% and 1.34% and 0.65% in assay [3] (setting [6]); 5.00% and 8.24% and 2.11% and -0.20% and 0.45% and 0.71% in assay [3] (setting [7]); 1.48% and 8.34% and 1.53% and -0.18% and -0.52% and -0.47% in assay [3] (setting [8]); 0.96% and 2.49% and 1.27% and 0.43% and 0.51% and 0.58% in assay [3] (setting [9]); 2.24% and 3.57% and 0.05% and 1.00% and 0.97% and 1.13% in assay [3] (setting [10]); 1.37% and 5.16% and 0.91% and -0.52% and -0.36% and 0.88% in assay [3] (log[Ligand] -9, single technical replicates). Moreover, the “BMax, saturation BRET binding” value in assay [4] is listed as 0.007 (0.005−0.01).

On to `Cc1cc(OCCOCCNC(=O)CCCCCN2\C(=C/C=C/C=C/C3=[N+](C)c4ccc(S(=O)(=O)[O-])cc4C3(C)C)C(C)(C)c3ccccc32)ccc1-c1cccc(COc2ccc(CCC(=O)O)c(F)c2)c1` [TUG-2355], for which the Kd in assay [2] (setting [5]) is 520 nM; in assay [4], 240 nM. Besides, the “Specific BRET” value in assay [2] ([TUG-2355] 1000 nM, technical triplicates) is 0.0476 and 0.0570 and 0.0671 and 0.0472 and 0.0443 and 0.0544. Moreover, the “BMax, saturation BRET binding” value is reported as 0.083 (0.060−0.14) in assay [2] (specific BRET, 95% confidence interval in parentheses) and 0.022 (0.015−0.038) in assay [4]. The molecule also had a pEC50 in assay [3] (Ca2+ data, mean±SEM, NR = No response) of 5.43±0.06. The “Ca2+ Response as a % of T360 Response” value in assay [3] (FFA1-Nluc cells, log[ligand] -7, technical replicates) is -1.03% and 4.29% and 0.96%; in assay [3] (FFA1-Nluc cells, log[ligand] -7.5, technical replicates), 1.35% and 1.54% and 1.46% and 0.43% and 0.51% and 0.58%; in assay [3] (FFA1-Nluc, log[TUG-2355] -5, technical triplicates), 62.07 % of T360 Response and 53.90 % of T360 Response and 49.62 % of T360 Response and 44.94 % of T360 Response and 53.23 % of T360 Response and 56.24 % of T360 Response and 74.69 % of T360 Response and 72.06 % of T360 Response; in assay [3] (Nluc-FFA1, log[TUG-2355] -5, technical triplicates) it was 78.72 % of T360 Response and 80.47 % of T360 Response and 78.90 % of T360 Response and 53.23 % of T360 Response and 56.24 % of T360 Response and 77.92 % of T360 Response and 57.96 % of T360 Response and 82.25 % of T360 Response; in assay [3] (Nluc-FFA1 cells, log[ligand] -7, technical replicates) it was 1.27% and 0.43% and 0.51% and 0.58% and 0.96% and 2.49%; in assay [3] (Nluc-FFA1 cells, log[ligand] -7.5, technical replicates) it was 2.49% (2×) and 2.03%. For the same molecule, the “Ca2+ Response as a % of T360 Response” value in assay [3] (Nluc-FFA1 cells, log[ligand] -8, technical replicates) was 0.05% and 1.00% and 0.97% and 1.13%; in assay [3] (log[Ligand] -4.5, single technical replicates) it was 81.14% and 82.71% and 91.68% and 50.63% and 60.58% and 55.59% and 78.02% and 80.44% and 71.73%; in assay [3] (log[Ligand] -5, single technical replicates), 78.72% and 80.47% and 78.90% and 53.23% and 56.24% and 77.92% and 57.96% and 82.25%; in assay [3] (setting [6]), 47.56% and 39.50% and 44.99% and 26.68% and 35.66% and 31.10% and 60.09% and 62.76% and 60.18%; in assay [3] (setting [7]), 6.20% and 5.86% and 4.09% and -1.05% and -0.0134% and -0.48% and -1.46% and 7.50% and -1.37%; in assay [3] (setting [8]), 0.81% and -1.43% and -1.40% and -2.16% and -1.38% and 1.40% and -3.04% and 3.51% and -1.19%. The “Ca2+ Response as a % of T360 Response” value is 1.12% and 1.72% and 2.65% and -2.38% and -2.12% and 0.39% and -2.69% and 2.22% and 0.50% in assay [3] (setting [9]); -2.32% and 0.08% and 1.34% and 0.25% and -0.22% and -1.88% and -1.89% and 3.89% and -2.52% in assay [3] (setting [10]). This molecule also had an EMax in assay [3] (percentage of response to 10 μM T360, NR = No response) of 87±10%.

As a reminder, the pEC50 is −log10 of the EC50, conventionally taken in molar units. Low values mean a high EC50, high ones a low EC50.
